For orientation: MBC means the lowest tested concentration that kills the bacteria rather than only halting them. Usually MIC stands for the smallest concentration in the dilution series that meets the test's criterion for growth inhibition.

Results on two molecules are retold here after ChEMBL document CHEMBL4725395, “Lipoic acid modified antimicrobial peptide with enhanced antimicrobial properties” (Bioorg Med Chem, 2020).

The test system of data set [1] is Cell membrane. The data set can be described thus: Induction of cell membrane damage in Escherichia coli ATCC 25922 assessed as leakage of cellular components at 16 ug/ml after 30 mins by transmission electron microscopy. Type of data set: subcellular. The following applies: dose 16.0 µg/ml.
The subject of data set [2] is Staphylococcus epidermidis. Description: Antimicrobial activity against Staphylococcus epidermidis ATCC 14990 assessed as inhibition of visible growth incubated for 24 hrs. Type of data set: functional.
Data set [3] relates to Staphylococcus aureus. Description: Antimicrobial activity against methicillin-resistant Staphylococcus aureus ATCC 43300 by measuring turbidity after 16 hrs. In kind it is functional.
Data set [4] concerns Escherichia coli. The data set can be described thus: Antimicrobial activity against Escherichia coli ATCC 25922 by measuring turbidity after 16 hrs. Type of data set: functional.
The test system of data set [5] is Pseudomonas aeruginosa. The data set can be described thus: Antimicrobial activity against Pseudomonas aeruginosa ATCC 27853 assessed as inhibition of visible growth incubated for 24 hrs. Type of data set: functional.
Data set [6] concerns Staphylococcus epidermidis. Description: Antimicrobial activity against Staphylococcus epidermidis ATCC 14990 by measuring turbidity after 16 hrs. In kind it is functional.
Data set [7] concerns Staphylococcus aureus. Description: Antibiofilm activity against 48 hrs pre-formed biofilm of Staphylococcus aureus ATCC 29213 assessed as reduction in biofilm viability at 64 ug/ml after 5 hrs relative to control. In kind it is functional. The following applies: dose 64 µg/ml.
Data set [8] in a line: Cytotoxicity against mouse L929 cells assessed as cell viability at 8 or 16 ug/ml after 24 hrs by MTT assay relative to control. Type of data set: cell-based. As to conditions: dose 8-16 µg/ml, read-out: Activity. In general terms: Tetrazolium assays rely on reduction of a dye to a coloured formazan, in cell work by metabolically active cells.
Data set [9] concerns Cell membrane. Description: Induction of cell membrane damage in methicillin-resistant Staphylococcus aureus ATCC 43300 assessed as leakage of cellular components at 16 ug/ml after 30 mins by transmission electron microscopy. In kind it is subcellular. The following applies: dose 16.0 µg/ml.
A short description of data set [10]: Hemolytic activity against Erythrocyte (unknown origin) at 16 ug/ml measured after 4 hrs by microplate reader analysis relative to control. The following applies: human, erythrocytes, at 16 µg/mL, read-out: Activity. In kind it is ADME, cell-based.
Data set [11] concerns Staphylococcus aureus. The data set can be described thus: Antimicrobial activity against Staphylococcus aureus ATCC 29213 assessed as inhibition of visible growth incubated for 24 hrs. In kind it is functional.
Data set [12] relates to Pseudomonas aeruginosa. Description: Antimicrobial activity against Pseudomonas aeruginosa ATCC 27853 by measuring turbidity after 16 hrs. Type of data set: functional.
Data set [13] has as its system Staphylococcus aureus. The data set can be described thus: Antibiofilm activity against 48 hrs preformed biofilm of methicillin resistant Staphylococcus aureus ATCC 43300 assessed as reduction in biofilm viability at 128 ug/ml after 5 hrs relative to control. Type of data set: functional. As to conditions: dose 128 µg/ml.
For data set [14], the system named is Cell membrane. The data set can be described thus: Induction of cytoplasmic membrane depolarization in Kcl - treated Escherichia coli DC2 assessed as increase in fluorescence intensity for a period of 600 sec by diSC3-5 dye based fluorescence microplate reader assay.
Data set [15] in a line: Cytotoxicity against mouse L929 cells assessed as cell viability at 128 ug/ml after 24 hrs by MTT assay relative to control. The following applies: at 128 µg/mL, read-out: Activity. Type of data set: cell-based.
Data set [16] deals with Escherichia coli. The data set can be described thus: Antimicrobial activity against Escherichia coli ATCC 25922 assessed as inhibition of visible growth incubated for 24 hrs. Type of data set: functional.
The test system of data set [17] is Staphylococcus aureus. The data set can be described thus: Antimicrobial activity against methicillin-resistant Staphylococcus aureus ATCC 43300 assessed as inhibition of visible growth incubated for 24 hrs. Type of data set: functional.
Data set [18] can be described thus: Hemolytic activity against Erythrocyte (unknown origin) at 4 ug/ml measured after 4 hrs by microplate reader analysis relative to control. In kind it is ADME, cell-based. As to conditions: human, erythrocytes, at 4 µg/mL, read-out: Activity.
In data set [19] the test system is Staphylococcus aureus. Description: Antimicrobial activity against Staphylococcus aureus ATCC 29213 by measuring turbidity at 540 nm OD after 16 hrs. Type of data set: functional.
The subject of data set [20] is Staphylococcus aureus. The data set can be described thus: Bactericidal activity against planktonic phase of Staphylococcus aureus ATCC 29213 assessed as log reduction in bacterial colony forming units at 2 ug/ml incubated for 15 mins followed by plating on agar plate and measured after overnight incubation by time-kill kinetic assay relative to control. Type of data set: functional. Also noted: scale not given: the % may be the effect or the level left. The following applies: dose 2 µg/ml, 0.25 h.

Data set [21] relates to Staphylococcus aureus. Description: Antibiofilm activity against Staphylococcus aureus ATCC 29213 assessed as inhibition of biofilm formation at 64 ug/ml after 48 hrs by crystal violet staining based assay relative to control. In kind it is functional. Also noted: scale not given: the % may be the effect or the level left. The following applies: dose 64 µg/ml.
Data set [22] can be described thus: Cytotoxicity against mouse L929 cells assessed as cell viability at 64 ug/ml after 24 hrs by MTT assay relative to control. As to conditions: at 64 µg/mL, read-out: Activity. In kind it is cell-based.
A short description of data set [23]: Cytotoxicity against mouse L929 cells assessed as cell viability at 32 ug/ml after 24 hrs by MTT assay relative to control. As to conditions: at 32 µg/mL, read-out: Activity. In kind it is cell-based.
For data set [24], the system named is Staphylococcus aureus. Description: Antibiofilm activity against methicillin-resistant Staphylococcus aureus ATCC 43300 assessed as dead bacteria at 64 ug/ml incubated for 5 hrs by live/dead staining based confocal laser scanning microscopy. As to conditions: dose 64.0 µg/ml. In kind it is functional, organism-based.
Data set [25] concerns Cell membrane. The data set can be described thus: Induction of outer membrane permeabilization in Escherichia coli ATCC 25922 assessed as increase in fluorescence intensity at 4 ug/ml after 100 sec by NPN-dye based assay. The following applies: dose 4.0 µg/ml. Type of data set: subcellular.
For data set [26], the system named is Staphylococcus aureus. The data set can be described thus: Antibiofilm activity against Staphylococcus aureus ATCC 29213 assessed as dead bacteria at 64 ug/ml incubated for 5 hrs by live/dead staining based confocal laser scanning microscopy. In kind it is functional, organism-based. As to conditions: dose 64.0 µg/ml.
Data set [27] deals with Staphylococcus aureus. The data set can be described thus: Antibiofilm activity against methicillin resistant Staphylococcus aureus ATCC 43300 assessed as inhibition of biofilm formation at 64 ug/ml after 48 hrs by crystal violet staining based assay relative to control. In kind it is functional. Also on record: scale not given: the % may be the effect or the level left. As to conditions: dose 64 µg/ml.

Data set [28] relates to Staphylococcus aureus. The data set can be described thus: Bactericidal activity against planktonic phase of methicillin-resistant Staphylococcus aureus ATCC 43300 assessed as log reduction in bacterial colony forming units at 8 ug/ml incubated for 15 mins followed by plating on agar plate and measured after overnight incubation by time-kill kinetic assay relative to control. Type of data set: functional. Also on record: scale not given: the % may be the effect or the level left. As to conditions: dose 8 µg/ml, 0.25 h.

≈ marks a conversion by molar mass, not a printed value. Calls of active or inactive are those of the source. Residues, ends and D or L forms follow the SMILES beside them. ξ: configuration not given here. *: point of attachment. Lipoyl(6ξ) = O=C(CCCCC1CCSS1)*

As to H-RIWVIWRR-NH2, the result in the data set on Cell membrane [1] and with Cell membrane [9] was Active. In addition, the MBC in data set [2] came out at 4 µg/mL; in the data set with Pseudomonas aeruginosa [5], 4 µg/mL; with Staphylococcus aureus [11] it was 4 µg/mL; with Escherichia coli [16] it was 4 µg/mL; with Staphylococcus aureus [17] it was 16 µg/mL. Moreover, the MIC against Staphylococcus aureus [3] turned out to be 8 µg/mL; in the data set with Escherichia coli [4] it was 4 µg/mL; in data set [6], 4 µg/mL; against Pseudomonas aeruginosa [12] it was 4 µg/mL; with Staphylococcus aureus [19] it was 2 µg/mL. The Activity in the data set on Staphylococcus aureus [7] was 45%; with Staphylococcus aureus [13] it was 40.2%; in the data set on Cell membrane [14], “Dose-dependent effect”. In addition, the viability at 24 h in data set [8] was 100%. In addition, the hemolysis at 4 h, 16 ug/ml in [10] amounted to 3.47%. Besides, the viability at 24 h, 128 ug/ml in data set [15] is 85.7%. Also, the hemolysis at 4 h, 4 ug/ml in [18] came out at 1.21%.
Turning to `CC[C@H](C)[C@H](NC(=O)[C@H](CCCNC(=N)N)NC(=O)CCCCC1CCSS1)C(=O)N[C@@H](Cc1c[nH]c2ccccc12)C(=O)N[C@H](C(=O)N[C@H](C(=O)N[C@@H](Cc1c[nH]c2ccccc12)C(=O)N[C@@H](CCCNC(=N)N)C(=O)N[C@@H](CCCNC(=N)N)C(N)=O)[C@@H](C)CC)C(C)C` (some centres not stated) ({Lipoyl(6ξ)}-RIWVIWRR-NH2), the outcome with Cell membrane [1], in the data set with Cell membrane [9], in the data set with Staphylococcus aureus [24], with Cell membrane [25] and with Staphylococcus aureus [26] was Active. Besides, the MBC worked out at 8 µg/mL (≈ 5.83 µM) in [2]; 8 µg/mL (≈ 5.83 µM) in the data set with Pseudomonas aeruginosa [5]; 2 µg/mL (≈ 1.46 µM) in the data set with Staphylococcus aureus [11]; 8 µg/mL (≈ 5.83 µM) with Escherichia coli [16]; 8 µg/mL (≈ 5.83 µM) in the data set on Staphylococcus aureus [17]. Also, the MIC against Staphylococcus aureus [3] came to 4 µg/mL (≈ 2.92 µM); with Escherichia coli [4], 8 µg/mL (≈ 5.83 µM); in data set [6] it was 8 µg/mL (≈ 5.83 µM); against Pseudomonas aeruginosa [12] it was 8 µg/mL (≈ 5.83 µM); in the data set with Staphylococcus aureus [19], 1 µg/mL (≈ 0.729 µM). In addition, the Activity is 99% in the data set on Staphylococcus aureus [20]; 12% with Staphylococcus aureus [21]; 60% in the data set with Staphylococcus aureus [7]; 25.6% in the data set with Staphylococcus aureus [27]; 36.4% in the data set on Staphylococcus aureus [13]; “Dose-dependent effect” in the data set with Cell membrane [14]. The Activity in the data set with Staphylococcus aureus [28] is 99%. Moreover, the viability at 24 h in data set [8] stood at 100%. In data set [22], the viability at 24 h, 64 ug/ml was found to be 84.9%. The viability at 24 h, 32 ug/ml in data set [23] amounted to 89.4%. For the same molecule, the hemolysis at 4 h, 16 ug/ml in [10] was 4.58%. Moreover, in data set [15], the viability at 24 h, 128 ug/ml is 80.1%. Further, the hemolysis at 4 h, 4 ug/ml in data set [18] worked out at 0.97%.
